Among the data in patent US7405235B2, “Transcription factor modulating compounds and methods of use thereof” (Paratek Pharmaceuticals, Inc., priority 2001, dated 2008) are MarA inhibition class values, retold here.

This assay deals with MarA (Escherichia coli, UniProt P0ACH5). The experiment in a line: MarA-activated selective marker (ccdB) cell survival assay, Example 2. The assay is classed as cell-based. Set-up: key: * indicates good inhibition of MarA; ** indicates very good inhibition of MarA. The conditions noted are these: inhibition of MarA: cell survival under conditions of MarA expression (ccdB under MarA-activated promoter). The source says: In the absence of Mar A, the expression of the selective marker would be silent. For example, in the case of regulation of the cytotoxic gene ccdB, the gene would be silent and the cells would survive. Synthesis of MarA from an inducible plasmid in a suitable host would result in the activation of the MarA responsive activatable promoter and expression of the selective marker. In the case of ccdB, the gene would be expressed and result in cell death. Compounds that inhibit MarA would be identified as those that permit cell survival under conditions of MarA expression.
Sequence of MarA (P0ACH5 whole entry, looked up): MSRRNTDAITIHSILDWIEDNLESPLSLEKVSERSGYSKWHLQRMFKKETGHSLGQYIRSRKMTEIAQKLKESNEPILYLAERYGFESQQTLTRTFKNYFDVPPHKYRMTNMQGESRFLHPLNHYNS
In the absence of MarA, the expression of the selective marker is silent and cells survive. Synthesis of MarA from an inducible plasmid in a bacterial or yeast cell leads to the activation of the inaA promoter, expression of ccdB, and subsequently results in cell death. Compounds that inhibit MarA are those that permit cell survival under conditions of MarA expression. In Table 4, * indicates good inhibition of MarA and ** indicates very good inhibition of MarA.

Take `COC(=O)c1ccccc1NC(=O)CSc1nnc(-c2ccco2)n1-c1ccccc1` [AC, 2-[2-(5-Furan-2-yl-4-phenyl-4H-[1,2,4]triazol-3-ylsulfanyl)-acetylamino]-benzoic acid methyl ester]: the MarA inhibition class result is “*”. For `N#Cc1c(-c2ccc3c(c2)OCO3)c(C#N)c2nc3ccccc3n2c1N` [AB, 1-Amino-3-benzo[1,3]dioxol-5-yl-benzo[4,5]imidazo[1,2-a]pyridine-2,4-dicarbonitrile], the MarA inhibition class result is reported as “**”. Then `CCOc1ccc(C2Nc3ccccc3-c3nnc(SC)nc3O2)cc1` (centres unmarked) [B, 6-(4-Ethoxy-phenyl)-3-methylsulfanyl-6,7-dihydro-5-oxa-1,2,4,7-tetraaza-dibenzo[a,c]cycloheptene], with “*”; and `Cc1cc2nc3s/c(=C/c4c[nH]nc4-c4ccccc4)c(=O)n3c2cc1C` [AD, 6,7-Dimethyl-2-(3-phenyl-1H-pyrazol-4-ylmethylene)-benzo[4,5]imidazo[2,1-b]thiazol-3-one], with “*”. Then `O=[N+]([O-])c1ccc2nc(-c3ccccc3)n(OCc3ccccc3)c2c1` [AI, 1-Benzyloxy-6-nitro-2-phenyl-1H-benzoimidazole], with “**”.
